Assay results taken from PubChem BioAssay (NCI).
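Growth conditions: 96-well plates. Treatment: test compound, 48 hours, 5 concentrations. Analysis: linear interpolation between bracketing concentrations; unreached endpoints set to highest concentration. TGI denotes the concentration required for complete inhibition of growth.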

Assays:
Assay in all cases: NCI-60 cell line screen, 48 h
UACC-62 melanoma = system: UACC-62 melanoma
KM20L2 colon = system: KM20L2 colon
RPMI-8226 leukemia = system: RPMI-8226 leukemia
HOP-62 NSCLC = system: HOP-62 NSCLC
KM12 colon = system: KM12 colon
SNB-75 CNS = system: SNB-75 CNS
OVCAR-8 ovarian = system: OVCAR-8 ovarian
SNB-78 CNS = system: SNB-78 CNS
SF-539 CNS = system: SF-539 CNS
DMS 114 small cell lung = system: DMS 114 small cell lung
SF-295 CNS = system: SF-295 CNS
UO-31 renal = system: UO-31 renal
U251 CNS = system: U251 CNS
MALME-3M melanoma = system: MALME-3M melanoma
MOLT-4 leukemia = system: MOLT-4 leukemia
SK-MEL-5 melanoma = system: SK-MEL-5 melanoma
DLD-1 colon = system: DLD-1 colon
NCI-H226 lung = system: NCI-H226 lung
ACHN renal = system: ACHN renal
XF 498 CNS = system: XF 498 CNS
NCI-H460 lung = system: NCI-H460 lung
OVCAR-5 ovarian = system: OVCAR-5 ovarian
HCT-15 colon = system: HCT-15 colon
CAKI-1 renal = system: CAKI-1 renal
DMS 273 small cell lung = system: DMS 273 small cell lung
SNB-19 CNS = system: SNB-19 CNS
M19-MEL melanoma = system: M19-MEL melanoma
HT29 colon = system: HT29 colon
HCT-116 colon = system: HCT-116 colon
A549 NSCLC = system: A549 NSCLC
NCI-H23 lung = system: NCI-H23 lung
SN12C renal = system: SN12C renal
SF-268 CNS = system: SF-268 CNS
SK-MEL-2 melanoma = system: SK-MEL-2 melanoma
TK-10 renal = system: TK-10 renal
OVCAR-4 ovarian = system: OVCAR-4 ovarian
EKVX NSCLC = system: EKVX NSCLC
HOP-92 NSCLC = system: HOP-92 NSCLC
OVCAR-3 ovarian = system: OVCAR-3 ovarian
A498 renal = system: A498 renal
HCC-2998 colon = system: HCC-2998 colon
786-0 renal = system: 786-0 renal
HL-60(TB) leukemia = system: HL-60(TB) leukemia
K-562 leukemia = system: K-562 leukemia
LOX IMVI melanoma = system: LOX IMVI melanoma
HOP-18 NSCLC = system: HOP-18 NSCLC
M14 melanoma = system: M14 melanoma
IGROV1 ovarian = system: IGROV1 ovarian
SW-620 colon = system: SW-620 colon
RXF 393 renal = system: RXF 393 renal
UACC-257 melanoma = system: UACC-257 melanoma
SK-MEL-28 melanoma = system: SK-MEL-28 melanoma
LXFL 529 NSCLC = system: LXFL 529 NSCLC
COLO 205 colon = system: COLO 205 colon
SK-OV-3 ovarian = system: SK-OV-3 ovarian
NCI-H522 lung = system: NCI-H522 lung
SR leukemia = system: SR leukemia
CCRF-CEM leukemia = system: CCRF-CEM leukemia

`CCCc1nc(N)nc(C(=O)Nc2cccc(C(F)(F)F)c2)c1CC` was tested, and the TGI (UACC-62 melanoma) was > 100 µM, the TGI (KM20L2 colon) was > 100 µM and the TGI (RPMI-8226 leukemia) was > 100 µM. The TGI (HOP-62 NSCLC) was > 100 µM, the TGI (KM12 colon) was > 100 µM and the TGI (SNB-75 CNS) was > 100 µM. The TGI (OVCAR-8 ovarian) was > 100 µM, the TGI (SNB-78 CNS) was > 100 µM and the TGI (SF-539 CNS) was > 100 µM. For the same compound, the TGI (DMS 114 small cell lung) was > 100 µM, the TGI (SF-295 CNS) was > 100 µM and the TGI (UO-31 renal) was > 100 µM. For the same compound, the TGI (U251 CNS) was > 100 µM, the TGI (MALME-3M melanoma) was > 100 µM and the TGI (MOLT-4 leukemia) was > 100 µM. For the same compound, the TGI (SK-MEL-5 melanoma) was > 100 µM, the TGI (DLD-1 colon) was > 100 µM and the TGI (NCI-H226 lung) was > 100 µM. For the same compound, the TGI (ACHN renal) was > 100 µM, the TGI (XF 498 CNS) was > 100 µM and the TGI (NCI-H460 lung) was > 100 µM. For the same compound, the TGI (OVCAR-5 ovarian) was > 100 µM, the TGI (HCT-15 colon) was > 100 µM and the TGI (CAKI-1 renal) was > 100 µM. The TGI (DMS 273 small cell lung) was > 100 µM, the TGI (SNB-19 CNS) was > 100 µM and the TGI (M19-MEL melanoma) was > 100 µM. The TGI (HT29 colon) was > 100 µM, the TGI (HCT-116 colon) was > 100 µM and the TGI (A549 NSCLC) was > 100 µM. The TGI (NCI-H23 lung) was > 100 µM, the TGI (SN12C renal) was > 100 µM and the TGI (SF-268 CNS) was > 100 µM. The TGI (SK-MEL-2 melanoma) was > 100 µM, the TGI (TK-10 renal) was > 100 µM and the TGI (OVCAR-4 ovarian) was > 100 µM. The TGI (EKVX NSCLC) was > 100 µM, the TGI (HOP-92 NSCLC) was > 100 µM and the TGI (OVCAR-3 ovarian) was > 100 µM. The TGI (A498 renal) was > 100 µM, the TGI (HCC-2998 colon) was > 100 µM and the TGI (786-0 renal) was > 100 µM. The TGI (HL-60(TB) leukemia) was > 100 µM, the TGI (K-562 leukemia) was > 100 µM and the TGI (LOX IMVI melanoma) was > 100 µM. For the same compound, the TGI (HOP-18 NSCLC) was > 100 µM, the TGI (M14 melanoma) was > 100 µM and the TGI (IGROV1 ovarian) was > 100 µM. The TGI (SW-620 colon) was > 100 µM, the TGI (RXF 393 renal) was > 100 µM and the TGI (UACC-257 melanoma) was > 100 µM. The TGI (SK-MEL-28 melanoma) was > 100 µM.
`O=C1C(Cl)C(c2cc(Br)cc(Br)c2O)N1n1cnc2ccccc2c1=O` (stereo unspecified) was tested, and the TGI (UACC-62 melanoma) was 49.3 µM, the TGI (KM20L2 colon) was > 100 µM and the TGI (RPMI-8226 leukemia) was 37.4 µM. For the same compound, the TGI (HOP-62 NSCLC) was > 100 µM, the TGI (KM12 colon) was 92.5 µM and the TGI (SNB-75 CNS) was 85.6 µM. The TGI (LXFL 529 NSCLC) was > 100 µM, the TGI (OVCAR-8 ovarian) was 94.9 µM and the TGI (SNB-78 CNS) was > 100 µM. The TGI (COLO 205 colon) was 93.2 µM, the TGI (SF-295 CNS) was 54.2 µM and the TGI (UO-31 renal) was 76.1 µM. The TGI (U251 CNS) was 31.8 µM, the TGI (MALME-3M melanoma) was 62.9 µM and the TGI (MOLT-4 leukemia) was 30.1 µM. The TGI (SK-MEL-5 melanoma) was 35.6 µM, the TGI (DLD-1 colon) was > 100 µM and the TGI (NCI-H226 lung) was 61.8 µM. For the same compound, the TGI (SK-OV-3 ovarian) was 42.3 µM, the TGI (ACHN renal) was > 100 µM and the TGI (XF 498 CNS) was 61.2 µM. The TGI (NCI-H460 lung) was > 100 µM, the TGI (NCI-H522 lung) was 49.1 µM and the TGI (OVCAR-5 ovarian) was 71.8 µM. For the same compound, the TGI (HCT-15 colon) was > 100 µM, the TGI (CAKI-1 renal) was 88.3 µM and the TGI (DMS 273 small cell lung) was > 100 µM. It also gave a TGI (SNB-19 CNS) of 89.3 µM, a TGI (M19-MEL melanoma) of 62.2 µM and a TGI (SR leukemia) of 35.1 µM. The TGI (HT29 colon) was > 100 µM, the TGI (HCT-116 colon) was 36.2 µM and the TGI (A549 NSCLC) was > 100 µM. The TGI (NCI-H23 lung) was 86.3 µM, the TGI (SN12C renal) was 91.2 µM and the TGI (SF-268 CNS) was > 100 µM. The TGI (SK-MEL-2 melanoma) was 46.7 µM, the TGI (TK-10 renal) was > 100 µM and the TGI (OVCAR-4 ovarian) was 43.1 µM. The TGI (EKVX NSCLC) was 85.9 µM, the TGI (OVCAR-3 ovarian) was 79.4 µM and the TGI (HCC-2998 colon) was > 100 µM. The TGI (786-0 renal) was > 100 µM, the TGI (HL-60(TB) leukemia) was 48 µM and the TGI (K-562 leukemia) was 71.5 µM. For the same compound, the TGI (CCRF-CEM leukemia) was 49.5 µM, the TGI (LOX IMVI melanoma) was 30.4 µM and the TGI (HOP-18 NSCLC) was 83.8 µM. The TGI (M14 melanoma) was 42.2 µM, the TGI (IGROV1 ovarian) was 70.7 µM and the TGI (SW-620 colon) was > 100 µM. The TGI (RXF 393 renal) was 63.7 µM, the TGI (UACC-257 melanoma) was 45.3 µM and the TGI (SK-MEL-28 melanoma) was 70.5 µM.
